Where two headings read alike, the source gives them in different places.
System: primary rat mixed cortical cells
Assay: In vitro myelination assay (MBP positive myelin strands, fold myelin pixels above background)
Assay type: cell-based
Conditions: for fold induction at 1 µM / fold induction at 10 µM: Rattus norvegicus
Excerpt: In Vitro Myelination Assay
Compounds were screened for their ability to induce myelination using a primary rat mixed cortical cell culture assay, which contains neurons, oligodendrocyte precursor cells, oligodendrocytes, astrocytes and microglia. The assay quantifies myelination by measuring myelin basic protein (MBP) immunofluorescent positive myelin strands from images taken using a Cellomics Array Scan (model Arrayscan VTI HCS Reader) or a Molecular Devices Image Xpress (model IXM XL) high content imager. The myelin strands were quantitated using a custom created myelin detection software program. Test compounds were dissolved in DMSO to make a 10 mM initial stock solution. Dilutions were made in myelination medium to obtain the final solutions for the assay and were tested in primary rat mixed cortical cells at selected doses.
Primary rat mixed cortical cells were prepared from harvested cerebral cortices from postnatal day 1 (P1) rats (P1 Rat CD® IGS pups) were purchased from Charles River) in Complete Dissociation Medium, wherein the meninges were removed and the cortical tissue chopped with a razor blade into ˜1 mm^3 pieces. Tissue from 1-3 pups was collected and placed into 15 ml conical tubes in a total volume of 5 ml of Complete Dissociation Medium. Activated papain (3 ml) was added to each 15 ml conical tube and tissue was incubated at 37° C. for 30 minutes. After the 30 minute incubation, DNase (Sigma D4527; 75 μl of a 1 mg/ml stock) was added to each tube, followed by mechanical trituration using a 2 ml serological pipette and autopipettor to gently dissociate the tissue. Following trituration, larger tissue pieces were allowed to settle by gravity, and the supernatant containing dissociated cells was transferred to a 50 ml conical tube with 4 ml of trypsin inhibitor. Cells were pelleted by centrifugation, resuspended in myelination medium and filtered through a 40 μm filter. Cells were then seeded in 96-well plates (BD Biosciences, Black, PDL-coated, Cat. No. 356640) at 87,500-95,000 cells/well in a final volume of 200 μl of Myelination Medium in the presence or absence of compound and cultured for 14 days in a humidified 37° C. incubator with 5% CO2. Half the medium was removed and replaced with fresh medium containing 1× compound on days 6 and 10. Using a Biotek automatic plate washer (model Biomek® FXP Laboratory Automation Workstation), cells were fixed with 4% paraformaldehyde on day 14, washed with PBS and blocked in 5% normal goat serum (Vector Laboratories, S-1000) in 0.1% PBS-TritonX-100 (PBST) for 1 hour. Cells were stained with 1:500 anti-MBP (Covance, cat # SMI99) primary antibody in 1% normal goat serum in 0.1% PBST for 2 hours at room temperature followed by 2 washes with PBST. A final incubation in secondary antibody (1:1000, Invitrogen, Alexa-488 anti-mouse IgG2b) and 1:10,000 Hoechst dye in 1% normal goat serum in 0.1% PBST was performed for 2 hours at room temperature. Plates were washed with PBS and then scanned on a Cellomics Array Scan using a 10× objective (25 images per well) or the Image Xpress using a 10× objective (9 image per well). Images were analyzed using Vertex myelin detection software (described below) to quantify total MBP myelin pixels per well. Fold myelin pixels above background at two concentrations (1.0 μM and 10.0 μM) relative to baseline of no added compound are reported below in Table 4. Standard deviation for each compound concentration was calculated using all replicates and using a standard deviation formula commonly used in the art.
One of skill in the art would recognize that for this type of primary neuronal mixed cell assay variability between different assay runs is to be expected even though the protocol is the same for each assay run. For instance, variability may be due to small differences in cell viability, cell density, age of the animals, etc.
Vertex Myelin Detection Software: […]

[1] = 1.0 μM compound, read-out: Fold myelin pixels above background relative to baseline of no added compound
[2] = 10.0 μM compound, read-out: Fold myelin pixels above background relative to baseline of no added compound
[3] = 1.0 μM compound, relative to baseline of no added compound, read-out: Fold myelin pixels above background
[4] = 10.0 μM compound, relative to baseline of no added compound, read-out: Fold myelin pixels above background
[5] = 1.0 μM compound, relative to baseline of no added compound, read-out: Fold myelin pixels above background, 1.0 μM
[6] = 10.0 μM compound, relative to baseline of no added compound, read-out: Fold myelin pixels above background, 10.0 μM

Row | SMILES | fold induction at 1 µM [5] | fold induction at 10 µM [6] | also measured
1 | Cc1cc(Nc2ncn(-c3cccc(F)c3)n2)c(F)c(OC2CCOC2)c1 (single isomer, unassigned) [Compound 886, N-(2-fluoro-5-methyl-3-tetrahydrofuran-3-yloxy-phenyl)-1-(3-fluorophenyl)-1,2,4-triazol-3-amine] | – | – | Fold myelin pixels above background relative to baseline of no added compound (1.0 μM compound): ++ (>10 to 100x); Fold myelin pixels above background relative to baseline of no added compound (10.0 μM compound): + (>1 to 10x)
2 | Cc1cc(Nc2ncn(-c3cc(F)cc(F)c3)n2)cc(N2CCC[C@H]2CN2CCOCC2)c1 (single isomer, unassigned) [Compound 919] | – | – | fold induction at 1 µM [1]: 10 to 100; fold induction at 10 µM [2]: ≤ 1
3 | Cc1cc(Nc2ncn(-c3ccccc3)n2)c(F)c(OC2CCOC2)c1 (single isomer, unassigned) [Compound 1002, N-(2-fluoro-5-methyl-3-tetrahydrofuran-3-yloxy-phenyl)-1-phenyl-1,2,4-triazol-3-amine] | – | – | Fold myelin pixels above background relative to baseline of no added compound (1.0 μM compound): +++ (>100 to 1000x); fold induction at 10 µM [2]: 10 to 100
4 | Cc1cc(Nc2ncn(-c3ccc(F)c(F)c3)n2)c(F)c(OC2CCOC2)c1 (single isomer, unassigned) [Compound 1009, 1-(3,4-difluorophenyl)-N-(2-fluoro-5-methyl-3-tetrahydrofuran-3-yloxy-phenyl)-1,2,4-triazol-3-amine] | – | – | fold induction at 1 µM [1]: 10 to 100; fold induction at 10 µM [2]: 1 to 10
5 | Cc1cc(Nc2ncn(-c3cc(F)cc(F)c3)n2)c(F)c(OC2CCOC2)c1 (single isomer, unassigned) [Compound 1028, 1-(3,5-difluorophenyl)-N-(2-fluoro-5-methyl-3-tetrahydrofuran-3-yloxy-phenyl)-1,2,4-triazol-3-amine] | – | – | fold induction at 1 µM [1]: 10 to 100; fold induction at 10 µM [2]: 1 to 10
6 | Cc1cc(Nc2ncn(-c3ccccc3)n2)c(F)c(OC2CCOC2)c1 (single isomer, unassigned) [Compound 1052, N-(2-fluoro-5-methyl-3-tetrahydrofuran-3-yloxy-phenyl)-1-phenyl-1,2,4-triazol-3-amine] | – | – | Fold myelin pixels above background relative to baseline of no added compound (1.0 μM compound): ++ (>10 to 100x); Fold myelin pixels above background relative to baseline of no added compound (10.0 μM compound): ++ (>10 to 100x)
7 | Cc1cc(Nc2ncn(-c3cccc(F)c3)n2)c(F)c(OC2CCOC2)c1 (single isomer, unassigned) [Compound 1061, N-(2-fluoro-5-methyl-3-tetrahydrofuran-3-yloxy-phenyl)-1-(3-fluorophenyl)-1,2,4-triazol-3-amine] | – | – | Fold myelin pixels above background relative to baseline of no added compound (10.0 μM compound): ++ (>10 to 100x); fold induction at 1 µM [1]: 10 to 100
8 | Cc1cc(NC[C@@]2(C)CCCO2)cc(Nc2ncn(-c3cc(F)cc(F)c3)n2)c1 (stereo in doubt) [Compound 490, N1-[1-(3,5-difluorophenyl)-1,2,4-triazol-3-yl]-5-methyl-N3-[(2-methyltetrahydrofuran-2-yl)methyl]benzene-1,3-diamine] | – | – | fold induction at 1 µM [3]: 10 to 100; fold induction at 10 µM [4]: 10 to 100
9 | Cc1cc(Nc2ncn(-c3cc(F)cc(F)c3)n2)cc([C@@]2(C)CNC(=O)O2)c1 (stereo in doubt) [Compound 658, 5-[3-[[1-(3,5-difluorophenyl)-1,2,4-triazol-3-yl]amino]-5-methyl-phenyl]-5-methyl-oxazolidin-2-one] | – | – | fold induction at 1 µM [3]: 10 to 100; fold induction at 10 µM [4]: ≤ 1
10 | Cc1cc(Nc2ncn(-c3cc(F)cc(F)c3)n2)cc(N2CCN(C3COC3)CC2)n1 [Compound 1, N-[1-(3,5-difluorophenyl)-1,2,4-triazol-3-yl]-2-methyl-6-[4-(oxetan-3-yl)piperazin-1-yl]pyridin-4-amine] | 1000 to 10000 | 100 to 1000 | –
11 | COC1CN(c2cc(C)cc(Nc3ncn(-c4cc(F)cc(F)c4)n3)c2)C1 [Compound 2, 1-(3,5-difluorophenyl)-N-[3-(3-methoxyazetidin-1-yl)-5-methyl-phenyl]-1,2,4-triazol-3-amine] | 100 to 1000 | 100 to 1000 | –
12 | Fc1ccc(-n2cnc(Nc3cc(C4=CCOCC4)nc(C4CC4)c3)n2)cc1F [Compound 3, 2-cyclopropyl-N-[1-(3,4-difluorophenyl)-1,2,4-triazol-3-yl]-6-(3,6-dihydro-2H-pyran-4-yl)pyridin-4-amine] | 100 to 1000 | 1000 to 10000 | –
13 | OC1(C2CN(c3cc(Nc4ncn(-c5cc(F)cc(F)c5)n4)cc(C(F)(F)F)c3)CCN2)CCC1 (stereo not shown) [Compound 4, 1-[4-[3-[[1-(3,5-difluorophenyl)-1,2,4-triazol-3-yl]amino]-5-(trifluoromethyl)phenyl]piperazin-2-yl]cyclobutanol] | 1 to 10 | ≤ 1 | –
14 | Fc1cc(F)cc(-n2cnc(Nc3cc(Cl)cc(N4CCN(C5COC5)CC4)c3)n2)c1 [Compound 5, N-[3-chloro-5-[4-(oxetan-3-yl)piperazin-1-yl]phenyl]-1-(3,5-difluorophenyl)-1,2,4-triazol-3-amine] | 1000 to 10000 | ≤ 1 | –
15 | Cc1cc(Nc2ncn(-c3ccccc3)n2)cc(N2CCC(C)(O)C2)c1 (stereo not shown) [Compound 6] | 100 to 1000 | 10 to 100 | –
16 | Cc1cc(Nc2ncn(-c3ccccc3)n2)cc(N2CC3(COC3)C2)c1 [Compound 7, N-[3-methyl-5-(6-oxa-2-azaspiro[3.3]heptan-2-yl)phenyl]-1-phenyl-1,2,4-triazol-3-amine] | 1000 to 10000 | 1000 to 10000 | –
17 | Cc1cc(Nc2ncn(-c3cc(F)cc(F)c3)n2)cc(NC2CCOC2)c1 (stereo not shown) [Compound 8, N3-[1-(3,5-difluorophenyl)-1,2,4-triazol-3-yl]-5-methyl-N1-tetrahydrofuran-3-yl-benzene-1,3-diamine] | 100 to 1000 | 1 to 10 | –
18 | c1ccc(-n2cnc(Nc3cc(C4CC4)nc(N4CCC5(CC4)OCCO5)c3)n2)cc1 [Compound 9, 2-cyclopropyl-6-(1,4-dioxa-8-azaspiro[4.5]decan-8-yl)-N-(1-phenyl-1,2,4-triazol-3-yl)pyridin-4-amine] | 1000 to 10000 | 100 to 1000 | –
19 | c1ccc(-n2cnc(Nc3cc(C4CCOCC4)cc(C4CCOCC4)c3)n2)cc1 [Compound 10, N-[3,5-di(tetrahydropyran-4-yl)phenyl]-1-phenyl-1,2,4-triazol-3-amine] | 1 to 10 | ≤ 1 | –
20 | Cc1cc(Nc2ncn(-c3ccccc3)n2)cc(N2CCC3(CC2)COC3)c1 [Compound 11, N-[3-methyl-5-(2-oxa-7-azaspiro[3.5]nonan-7-yl)phenyl]-1-phenyl-1,2,4-triazol-3-amine] | 1000 to 10000 | 1000 to 10000 | –
21 | COC(=O)N1CCC(c2cc(C)cc(Nc3ncn(-c4ccccc4)n3)c2)CC1 [Compound 12, methyl 4-[3-methyl-5-[(1-phenyl-1,2,4-triazol-3-yl)amino]phenyl]piperidine-1-carboxylate] | 100 to 1000 | 1 to 10 | –
22 | CN1CCN(c2cc(Nc3ncn(-c4ccncc4)n3)cc(C(F)(F)F)c2)CC1 [Compound 13, N-[3-(4-methylpiperazin-1-yl)-5-(trifluoromethyl)phenyl]-1-(4-pyridyl)-1,2,4-triazol-3-amine] | 100 to 1000 | ≤ 1 | –
23 | CCc1cc(Nc2ncn(-c3ccc(F)cc3)n2)cc(N2CCN(C3COC3)CC2)c1 [Compound 14, N-[3-ethyl-5-[4-(oxetan-3-yl)piperazin-1-yl]phenyl]-1-(4-fluorophenyl)-1,2,4-triazol-3-amine] | 1000 to 10000 | ≤ 1 | –

Source: US10766869B2, “Triazoles for the treatment of demyelinating dieases” (Vertex Pharmaceuticals Incorporated, priority 2015, dated 2020)
